Consider 21 molecules from patent US12338253B2, “Nitrogen-containing polycyclic fused ring compound, pharmaceutical composition thereof, preparation method therefor and use thereof” (APPLIED PHARMACEUTICAL SCIENCE, INC., priority 2019, dated 2025).

The subject of one test is TT Cell. Briefly: TT cell activity test (CelltiterGlo, 72 h). The class given is cell-based, human. Particulars: for IC50: Homo sapiens, TT cell line, 72 h, CTG; for inhibitory activity on TT cells compared with cabozantinib: comparison in words. The procedure:
2.3 Data Processing % Inhibition (inhibition rate)=100*(HC−test compound well reading)/(HC−LC) • High control (HC, reading control without inhibition): 0.5% DMSO • Low control (LC, control with compound inhibition): 1 μM CEP-32496
The IC50 values were calculated using GraphPad Prism 6 software. Y=Bottom+(Top−Bottom)/(1+10^((Log IC50−X)*HillSlope)); • X: log of cpd concentration; • Y: % inhibition; • Top and Bottom: plateaus in same units as Y; • Log IC50: same log units as X; and • HillSlope: slope factor The Cell Results are Shown in Table 5: […]
In general terms: ATP-based viability assays read luminescence as a measure of living cells.

The next test deals with RET G810R (Homo sapiens (Human), UniProt P07949, G810R). As to the kind of experiment: HTRF kinase activity test, RET G810R. The class given is biochemical. Particulars: for IC50: HTRF KinEASE-TK; for inhibitory activity on RET G810R compared with cabozantinib and selpercatinib (LOXO-292): comparison in words. (In general: In TR-FRET formats the signal depends on donor and acceptor labels being close together.)
RET G810R, sequence (P07949 29-1114 G810R): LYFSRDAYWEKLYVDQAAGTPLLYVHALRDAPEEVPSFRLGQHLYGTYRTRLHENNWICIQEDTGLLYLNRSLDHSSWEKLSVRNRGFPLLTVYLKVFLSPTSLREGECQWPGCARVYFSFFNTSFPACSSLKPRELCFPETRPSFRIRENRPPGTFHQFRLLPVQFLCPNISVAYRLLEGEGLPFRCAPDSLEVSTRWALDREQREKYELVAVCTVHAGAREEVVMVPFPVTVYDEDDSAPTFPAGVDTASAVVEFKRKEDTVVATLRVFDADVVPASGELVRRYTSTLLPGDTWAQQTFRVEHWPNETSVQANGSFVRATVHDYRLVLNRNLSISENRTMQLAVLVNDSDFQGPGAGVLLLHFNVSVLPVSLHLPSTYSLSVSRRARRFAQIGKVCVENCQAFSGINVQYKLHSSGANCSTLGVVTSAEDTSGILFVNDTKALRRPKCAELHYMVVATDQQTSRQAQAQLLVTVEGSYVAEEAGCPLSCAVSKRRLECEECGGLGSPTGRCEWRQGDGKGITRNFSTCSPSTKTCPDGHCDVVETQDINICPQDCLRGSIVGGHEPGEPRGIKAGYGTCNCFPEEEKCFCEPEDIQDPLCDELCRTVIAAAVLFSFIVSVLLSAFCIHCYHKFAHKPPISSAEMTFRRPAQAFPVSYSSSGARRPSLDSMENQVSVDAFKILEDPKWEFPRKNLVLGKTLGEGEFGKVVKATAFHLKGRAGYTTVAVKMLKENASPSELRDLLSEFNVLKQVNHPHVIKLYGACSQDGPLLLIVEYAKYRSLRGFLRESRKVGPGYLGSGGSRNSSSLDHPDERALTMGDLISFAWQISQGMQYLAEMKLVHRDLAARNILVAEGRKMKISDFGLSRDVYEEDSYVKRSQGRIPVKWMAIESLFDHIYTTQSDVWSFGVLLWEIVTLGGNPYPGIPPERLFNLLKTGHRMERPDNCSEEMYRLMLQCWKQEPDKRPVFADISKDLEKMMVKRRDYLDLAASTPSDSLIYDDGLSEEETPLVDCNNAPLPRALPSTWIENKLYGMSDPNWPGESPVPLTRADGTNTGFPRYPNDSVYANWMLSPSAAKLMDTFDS

In general, IC50 refers to the point on the concentration scale where inhibition reaches its midpoint. Lower therefore signals higher potency. `COc1cc2nccc(Oc3ccc(NC(=O)C4(C(=O)Nc5ccc(F)cc5)CC4)cc3)c2cc1OC` [Cabozantinib, reference compound] had an IC50 with TT Cell of 143 nM.

As for `COc1ccc(CN2C3CC2CN(c2ccc(-c4cc(Br)cn5nc6[nH]ncc6c45)cn2)C3)cn1` [Compound 2], in the test on TT Cell, the IC50 is 42.2 nM and the “inhibitory activity on TT cells compared with cabozantinib” value was “significantly better than that of cabozantinib”.

As to `COc1ccc(CN2C3CC2CN(c2ccc(-c4cc(OCc5ccccc5)cn5nc6[nH]ncc6c45)cn2)C3)cn1` [Compound 3, 6-(benzyloxy)-4-(6-(6-((6-methoxypyridin-3-yl)methyl)-3,6-diazabicyclo[3.3.1]heptan-3-yl)pyridin-3-yl)-1H-pyrazolo[3′,4′:3,4]pyrazolo[1,5-a]pyridine], at RET G810R, the half-inhibitory concentration (IC50) turned out to be 16.2 nM; the “inhibitory activity on RET G810R compared with cabozantinib and selpercatinib (LOXO-292)” value is “significantly better than that of cabozantinib and selpercatinib (LOXO-292)”. Further, in the test with TT Cell, the half-inhibitory concentration (IC50) turned out to be 32.8 nM and the “inhibitory activity on TT cells compared with cabozantinib” value is recorded as “significantly better than that of cabozantinib”.

For `COc1ccc(CN2C3CC2CN(c2ccc(-c4cc(C#N)cn5nc6[nH]ncc6c45)cn2)C3)cn1` [Compound 5, 4-(6-(6-((6-methoxypyridin-3-yl)methyl)-3,6-diazabicyclo[3.3.1]heptan-3-yl)pyridin-3-yl)-1H-pyrazolo[3′,4′:3,4]pyrazolo[1,5-a]pyridine-6-carbonitrile], at RET G810R, the IC50 came out at 38.4 nM; the “inhibitory activity on RET G810R compared with cabozantinib and selpercatinib (LOXO-292)” value was “significantly better than that of cabozantinib and selpercatinib (LOXO-292)”. Moreover, in the test on TT Cell, the IC50 stood at 11.8 nM and the “inhibitory activity on TT cells compared with cabozantinib” value is “significantly better than that of cabozantinib”.

Consider `COc1ccc(CN2C3CC2CN(c2ccc(-c4cc(N)cn5nc6[nH]ncc6c45)cn2)C3)cn1` [Compound 6, 4-(6-(6-((6-methoxypyridin-3-yl)methyl)-3,6-diazabicyclo[3.3.1]heptan-3-yl)pyridin-3-yl)-1H-pyrazolo[3′,4′:3,4]pyrazolo[1,5-a]pyridin-6-amine], for which, in the test with TT Cell, the half-inhibitory concentration (IC50) was 19.4 nM and the “inhibitory activity on TT cells compared with cabozantinib” value is “significantly better than that of cabozantinib”.

Consider `COc1ccc(CN2C3CC2CN(c2ccc(-c4cc(OCC(C)(C)O)cn5nc6[nH]ncc6c45)cn2)C3)cn1` [Compound 8, 1-((4-(6-(6-((6-methoxypyridin-3-yl)methyl)-3,6-diazabicyclo[3.3.1]heptan-3-yl)pyridin-3-yl)-1H-pyrazolo[3′,4′:3,4]pyrazolo[1,5-a]pyridin-6-yl)oxy)-2-methylpropan-2-ol], for which, in the test with TT Cell, 14.4 nM corresponded to half-maximal inhibition (IC50) and the “inhibitory activity on TT cells compared with cabozantinib” value is “significantly better than that of cabozantinib”.

Regarding `COc1ccc(CN2C3CC2CN(c2ccc(-c4cc(OCCO)cn5nc6[nH]ncc6c45)cn2)C3)cn1` [Compound 10], at RET G810R, the IC50 turned out to be 3.8 nM; the “inhibitory activity on RET G810R compared with cabozantinib and selpercatinib (LOXO-292)” value was “significantly better than that of cabozantinib and selpercatinib (LOXO-292)”. Also, in the test on TT Cell, the midpoint of inhibition, the IC50, lay at 12.3 nM and the “inhibitory activity on TT cells compared with cabozantinib” value is given as “significantly better than that of cabozantinib”.

Take `CCCCOc1cc(-c2ccc(N3CC4CC(C3)N4Cc3ccc(OC)nc3)nc2)c2c3cn[nH]c3nn2c1` [Compound 11]: at RET G810R, it took 10.1 nM to reach half-maximal inhibition (IC50); the “inhibitory activity on RET G810R compared with cabozantinib and selpercatinib (LOXO-292)” value is “significantly better than that of cabozantinib and selpercatinib (LOXO-292)”. Moreover, in the test on TT Cell, the half-inhibitory concentration (IC50) turned out to be 16.8 nM and the “inhibitory activity on TT cells compared with cabozantinib” value is recorded as “significantly better than that of cabozantinib”.

For `COc1ccc(CN2C3CC2CN(c2ccc(-c4cc(OCCCCF)cn5nc6[nH]ncc6c45)cn2)C3)cn1` [Compound 13], at RET G810R, the IC50 stood at 3.1 nM; the “inhibitory activity on RET G810R compared with cabozantinib and selpercatinib (LOXO-292)” value is “significantly better than that of cabozantinib and selpercatinib (LOXO-292)”. Besides, in the test on TT Cell, the half-inhibitory concentration (IC50) came out at 10.7 nM and the “inhibitory activity on TT cells compared with cabozantinib” value is “significantly better than that of cabozantinib”.

For `COc1ccc(CN2C3CC2CN(c2ccc(-c4cc(OCCCl)cn5nc6[nH]ncc6c45)cn2)C3)cn1` [Compound 14, 6-(2-chloroethoxy)-4-(6-(6-((6-methoxypyridin-3-yl)methyl)-3,6-diazabicyclo[3.3.1]heptan-3-yl)pyridin-3-yl)-1H-pyrazolo[3′,4′:3,4]pyrazolo[1,5-a]pyridine], on RET G810R, the IC50 amounted to 2.2 nM; the “inhibitory activity on RET G810R compared with cabozantinib and selpercatinib (LOXO-292)” value is “significantly better than that of cabozantinib and selpercatinib (LOXO-292)”.

For the molecule `COc1ccc(CN2C3CC2CN(c2ccc(-c4cc(OCCBr)cn5nc6[nH]ncc6c45)cn2)C3)cn1` [Compound 15, 6-(2-bromoethoxy)-4-(6-(6-((6-methoxypyridin-3-yl)methyl)-3,6-diazabicyclo[3.3.1]heptan-3-yl)pyridin-3-yl)-1H-pyrazolo[3′,4′:3,4]pyrazolo[1,5-a]pyridine], on RET G810R, the 50% inhibitory concentration (IC50) was found to be 7.9 nM; the “inhibitory activity on RET G810R compared with cabozantinib and selpercatinib (LOXO-292)” value was “significantly better than that of cabozantinib and selpercatinib (LOXO-292)”.

`COc1ccc(CN2C3CC2CN(c2ccc(-c4cc(OC[C@@H]5CNCCO5)cn5nc6[nH]ncc6c45)cn2)C3)cn1` [Compound 17] showed a concentration for half-maximal inhibition (IC50) in the test on TT Cell of 11.3 nM.

For `CCN(CC)C(=O)N1CCN(c2ccc(-c3cc(OCCF)cn4nc5[nH]ncc5c34)cn2)CC1` [Compound 18, N,N-diethyl-4-(5-(6-(2-fluoroethoxy)-1H-pyrazolo[3′,4′:3,4]pyrazolo[1,5-a]pyridin-4-yl)pyridin-2-yl)piperazine-1-carboxamide], on RET G810R, the IC50 turned out to be 18.9 nM; the “inhibitory activity on RET G810R compared with cabozantinib and selpercatinib (LOXO-292)” value is “significantly better than that of cabozantinib and selpercatinib (LOXO-292)”. In addition, in the test with TT Cell, inhibition was half-maximal at 78.2 nM (IC50) and the “inhibitory activity on TT cells compared with cabozantinib” value is recorded as “significantly better than that of cabozantinib”.

Regarding `O=C(Cc1ccccn1)N1CCN(c2ccc(-c3cc(OCCF)cn4nc5[nH]ncc5c34)cn2)CC1` [Compound 19, 1-(4-(5-(6-(2-fluoroethoxy)-1H-pyrazolo[3′,4′:3,4]pyrazolo[1,5-a]pyridin-4-yl)pyridin-2-yl)piperazin-1-yl)-2-(pyridin-2-yl)ethan-1-one], at RET G810R, inhibition was half-maximal at 4.8 nM (IC50); the “inhibitory activity on RET G810R compared with cabozantinib and selpercatinib (LOXO-292)” value is “significantly better than that of cabozantinib and selpercatinib (LOXO-292)”. Also, in the test with TT Cell, 31.2 nM corresponded to half-maximal inhibition (IC50) and the “inhibitory activity on TT cells compared with cabozantinib” value is “significantly better than that of cabozantinib”.

Regarding `O=C([C@H](O)c1ccccc1)N1CCN(c2ccc(-c3cc(OCCF)cn4nc5[nH]ncc5c34)cn2)CC1` [Compound 20, (R)-1-(4-(5-(6-(2-fluoroethoxy)-1H-pyrazolo[3′,4′:3,4]pyrazolo[1,5-a]pyridin-4-yl)pyridin-2-yl)piperazin-1-yl)-2-hydroxy-2-phenylethan-1-one], at RET G810R, half-maximal inhibition (IC50) required 1.6 nM; the “inhibitory activity on RET G810R compared with cabozantinib and selpercatinib (LOXO-292)” value is “significantly better than that of cabozantinib and selpercatinib (LOXO-292)”. Further, in the test on TT Cell, inhibition was half-maximal at 27.8 nM (IC50) and the “inhibitory activity on TT cells compared with cabozantinib” value is reported as “significantly better than that of cabozantinib”.

As for `COc1ccc(CN2C3CC2CN(c2ccc(-c4cc(OCCOCC5CC5)cn5nc6[nH]ncc6c45)cn2)C3)cn1` [Compound 28, 6-(2-(cyclopropylmethoxy)ethoxy)-4-(6-(6-((6-methoxypyridin-3-yl)methyl)-3,6-diazabicyclo[3.3.1]heptan-3-yl)pyridin-3-yl)-1H-pyrazolo[3′,4′:3,4]pyrazolo[1,5-a]pyridine], in the test with TT Cell, the IC50 is 64.3 nM and the “inhibitory activity on TT cells compared with cabozantinib” value was “significantly better than that of cabozantinib”.

For `COc1ccc(CN2C3CC2CN(c2ccc(-c4cc(OC(C)C)cn5nc6[nH]ncc6c45)cn2)C3)cn1` [Compound 29], in the test on TT Cell, the 50% inhibitory concentration (IC50) turned out to be 60.8 nM and the “inhibitory activity on TT cells compared with cabozantinib” value is recorded as “significantly better than that of cabozantinib”.

Take `COc1ccc(CN2C3CC2CN(c2ccc(-c4cc(OC(F)F)cn5nc6[nH]ncc6c45)cn2)C3)cn1` [Compound 33, 6-(difluoromethoxy)-4-(6-(6-((6-methoxypyridin-3-yl)methyl)-3,6-diazabicyclo[3.3.1]heptan-3-yl)pyridin-3-yl)-1H-pyrazolo[3′,4′:3,4]pyrazolo[1,5-a]pyridine]: in the test on TT Cell, the half-maximal inhibitory concentration (IC50) stood at 350 nM.

Regarding `COc1ccc(CN2C3CC2CN(c2ccc(-c4cc(OCCOC5CC5)cn5nc6[nH]ncc6c45)cn2)C3)cn1` [Compound 34], in the test with TT Cell, the IC50 stood at 81.8 nM and the “inhibitory activity on TT cells compared with cabozantinib” value is “significantly better than that of cabozantinib”.

Consider `CCOc1cc(-c2ccc(N3CC4CC(C3)N4Cc3ccc(OC)nc3)nc2)c2c3c(C)n[nH]c3nn2c1` [Compound 35], for which the IC50 with TT Cell is 296 nM.

Consider `COc1ccc(CN2C3CC2CN(c2ccc(-c4cc(OCC5CC5)cn5nc6[nH]ncc6c45)cn2)C3)cn1` [Compound 37, 6-(cyclopropylmethoxy)-4-(6-(6-((6-methoxypyridin-3-yl)methyl)-3,6-diazabicyclo[3.3.1]heptan-3-yl)pyridin-3-yl)-1H-pyrazolo[3′,4′:3,4]pyrazolo[1,5-a]pyridine], for which, in the test on TT Cell, 29.2 nM corresponded to half-maximal inhibition (IC50) and the “inhibitory activity on TT cells compared with cabozantinib” value is “significantly better than that of cabozantinib”.
